The values that follow come from ChEMBL document CHEMBL1157174, “Electronically stabilized versions of the antimalarial acetal trioxanes artemether and artesunate” (Bioorg Med Chem, 2008).

Active and inactive are the calls of the source. The rule behind the calls is not given here.

The test system of the assay is Plasmodium berghei. Briefly: Antimalarial activity against Plasmodium berghei infected mice (Mus musculus) at 30 mg/kg peroral dose. It counts as functional, organism-based. Also noted: dose 30 mg/kg.
Take `CCCCCc1ccc(C(=O)O[C@@H]2O[C@@H]3O[C@]4(C)CC[C@H]5[C@H](C)CC[C@H]([C@@]35OO4)[C@@]2(C)S(=O)(=O)c2ccccc2)cc1`: the result was inactive.
As to `CCCCCCCCCCc1ccc(C(=O)O[C@@H]2O[C@@H]3O[C@]4(C)CC[C@H]5[C@H](C)CC[C@H]([C@@]35OO4)[C@@]2(C)S(C)(=O)=O)cc1`, the result was inactive.
Then `C[C@@H]1CC[C@@H]2[C@]34OO[C@@](C)(CC[C@@H]13)O[C@H]4OC(=O)[C@@]2(C)S(C)(=O)=O`, with “inactive”; and `C[C@@H]1CC[C@@H]2[C@]34OO[C@@](C)(CC[C@@H]13)O[C@H]4OC(=O)[C@]2(C)S(C)(=O)=O`, with “inactive”; and `C[C@@H]1CC[C@@H]2[C@]34OO[C@@](C)(CC[C@@H]13)O[C@H]4O[C@H](O)[C@@]2(C)S(C)(=O)=O`, with “inactive”.
With `C[C@@H]1CC[C@@H]2[C@]34OO[C@@](C)(CC[C@@H]13)O[C@H]4OC(O)[C@]2(C)F` (stereo partly specified) the entry was “inactive”.
Then `C[C@@H]1CC[C@@H]2[C@]34OO[C@@](C)(CC[C@@H]13)O[C@H]4O[C@@H](O)[C@]2(C)S(=O)(=O)c1ccccc1`, with “inactive”; and `CO[C@@H]1O[C@@H]2O[C@]3(C)CC[C@H]4[C@H](C)CC[C@@H]([C@@]1(C)F)[C@@]24OO3`, with “inactive”; and `C[C@@H]1CC[C@@H]2[C@]34OO[C@@](C)(CC[C@@H]13)O[C@H]4O[C@@H](O)[C@]2(C)S(C)(=O)=O`, with “inactive”.
As to `CO[C@H]1O[C@@H]2O[C@]3(C)CC[C@H]4[C@H](C)CC[C@@H]([C@@]1(C)F)[C@@]24OO3`, the outcome was inactive.
With `CCCCCCCCCCCCCCCCCC(=O)O[C@@H]1O[C@@H]2O[C@]3(C)CC[C@H]4[C@H](C)CC[C@H]([C@@]24OO3)[C@@]1(C)S(C)(=O)=O`, the result was inactive.
